In patent US20230245725A1, “Means and Methods for the Prediction of Amyloid Core Sequences” (VIB VZW, priority 2020, published 2023):
Where two headings read alike, the source gives them in different places.

Experiments:
Type in all cases: physicochemical
[1] = Amyloid-forming properties of the peptide screen (overall call from Th-T, pFTAA, TEM)
Excerpt: In the interest of improving the current description of the familiar amyloidogenic protein dataset, we selected and synthesised a subset of 96 peptides corresponding to strong aggregation prone regions identified in these proteins by Cordax. Apart of prediction strength, the peptide screen was also selectively constructed to ensure broad sequence variability and a wide distribution on the proteins of the dataset, with a preference for longer entries defined by inadequate previous characterisation. Peptide sequences were cross-checked and filtered to exclude overlapping sequences with previously identified amyloid regions and WALTZ-DB (see Table 2). The remaining selection of 96 peptides were synthesized using standard solid phase synthesis and their amyloid-forming properties were initially examined using Thioflavin-T (Th-T) or pFTAA binding, following rotating incubation for 5 days at room temperature. The binding assays are complementary, as Th-T and pFTAA are opposingly charged molecules, which increases the amyloid identification rate by overcoming cases of dye-specific failure to bind to amyloid surfaces based on charge repulsion. Under these conditions, 66 peptides successfully bind the specific dyes (FIGS. 3a & 3b) by forming fibrils with typical amyloid morphologies and properties that were verified using transmission electron microscopy (FIG. 3c) and Congo red staining for selected cases (FIG. 3d). As these dyes are known to yield false negatives, in particular for short peptides, all dye-negative peptides were further investigated using electron microscopy. During this scan, we recovered 19 additional sequences that were capable of forming sparse amyloid-like fibrils with shorter lengths (see FIG. 8). […]
(§1) Peptides derived from the Cordax validation set were synthesized using an Intavis Multipep RSi solid phase peptide synthesis robot. Peptide purity (>90%) was evaluated using RP-HPLC purification protocols and peptides were stored as ether precipitates (−20° C.). Peptide stocks were initially treated with 1,1,1,3,3,3-hexafluoro-isopropanol (HFIP) (Merck), then dissolved in traces of dimethyl sulfoxide (DMSO) (Merck) (<5%), filtered through 0.2 μm filters and finally in milli-Q water to reach a final concentration of 200 μM or up to 1 mM for dye-negative peptides. Dithiothreitol (DTT) (1 mM) was included in solutions of peptides spanning cysteine or methionine residues. All peptides were incubated at room temperature for a period of 5 days on a rotating wheel.
(§2) Amyloid aggregation was monitored using fluorescent spectroscopy binding assays. Th-T (Sigma) or pFTAA (Ebba Biotech AB) was added in half-area black 96-well microplates (Corning, USA) at a final concentration of 25 μM and 0.5 μM, respectively. Fluorescence intensity was measured in replicates (n=6) using a PolarStar Optima and a FluoStar Omega plate reader (BMG Labtech, Germany), equipped with an excitation filter at 440 nm and emission filters at 480 nm and 510 nm, respectively.
(§3) Peptide solutions were incubated for 5 days at room temperature in order to form mature amyloid-like fibrils. Suspensions (5 μL) of each peptide solution were added on 400-mesh carbon-coated copper grids (Agar Scientific Ltd., England), following a glow-discharging step of 30 s to improve sample adsorption. Grids were washed with milli-Q water and negatively stained using uranyl acetate (2% w/v in milli-Q water). Grids were examined with a JEM-1400 120 kV transmission electron microscope (JEOL, Japan), operated at […].

[2] = Thioflavin-T binding assay of synthetic peptides; conditions: 200 μM peptide, rotation 5 days, room temperature; Th-T 25 μM
Excerpt: (§4) In the interest of improving the current description of the familiar amyloidogenic protein dataset, we selected and synthesised a subset of 96 peptides corresponding to strong aggregation prone regions identified in these proteins by Cordax. Apart of prediction strength, the peptide screen was also selectively constructed to ensure broad sequence variability and a wide distribution on the proteins of the dataset, with a preference for longer entries defined by inadequate previous characterisation. Peptide sequences were cross-checked and filtered to exclude overlapping sequences with previously identified amyloid regions and WALTZ-DB (see Table 2). The remaining selection of 96 peptides were synthesized using standard solid phase synthesis and their amyloid-forming properties were initially examined using Thioflavin-T (Th-T) or pFTAA binding, following rotating incubation for 5 days at room temperature. The binding assays are complementary, as Th-T and pFTAA are opposingly charged molecules, which increases the amyloid identification rate by overcoming cases of dye-specific failure to bind to amyloid surfaces based on charge repulsion. Under these conditions, 66 peptides successfully bind the specific dyes (FIGS. 3a & 3b) by forming fibrils with typical amyloid morphologies and properties that were verified using transmission electron microscopy (FIG. 3c) and Congo red staining for selected cases (FIG. 3d). As these dyes are known to yield false negatives, in particular for short peptides, all dye-negative peptides were further investigated using electron microscopy. During this scan, we recovered 19 additional sequences that were capable of forming sparse amyloid-like fibrils with shorter lengths (see FIG. 8).
as §1, §2

[3] = pFTAA binding assay of synthetic peptides; conditions: 200 μM peptide, rotation 5 days, room temperature; pFTAA 0.5 μM
Excerpt: as §4, §1, §2

[4] = Transmission electron microscopy of peptide fibrils
Excerpt: as §4, §3

[5] = amyloid-like fibrils after 5 days at room temperature

Substance | Amyloid ([1]; overall amyloid-forming call) | Th-T Binding [2] | pFTAA Binding [3] | TEM [4, 5] | Amyloid [1] | TEM [4]
AFFLFC | ● | ● | ● |  |  | 
AYVILK | ● |  | ● |  |  | 
CEFLRK | ● |  | ● |  |  | 
DCFEYV | ● | ● | ● |  |  | 
DLVVFE | ● | ● | ● |  |  | 
EDCFIL | ● | ● | ● |  |  | 
EVYKWT | ● |  | ● |  |  | 
FEYVQL | ● | ● | ● |  |  | 
FKVAIV | ● |  | ● |  |  | 
FLGYFK | ● |  |  | ● |  | 
FSFTIA | ● | ● | ● |  |  | 
FYAVRL | ● |  |  | ● |  | 
GDVAFI | ● | ● | ● |  |  | 
GVIHYI | ● |  |  | ● |  | 
GWFLGW | ● | ● |  |  |  | 
GWNIPM | ● |  | ● |  |  | 
GYLTIR | ● |  |  | ● |  | 
GYTLFS | ● |  |  | ● |  | 
HYYAVA | ● |  | ● |  |  | 
IGINIK | ● |  |  | ● |  | 
IGVVGW | ● | ● | ● |  |  | 
IGYNIK | ● |  |  | ● |  | 

Substance | Amyloid ([1]; overall amyloid-forming call) | Th-T Binding [2] | pFTAA Binding [3] | TEM [4, 5] | Amyloid [1] | TEM [4]
INAWLF | ● | ● | ● |  |  | 
INFEFS | ● | ● | ● |  |  | 
IQIHHY | ● |  |  | ● |  | 
LCSTFC | ● | ● | ● |  |  | 
LHCLRR | ● |  | ● |  |  | 
LIFMGH | ● | ● | ● |  |  | 
LIVSIL | ● | ● | ● |  |  | 
LLDNWD | ● |  | ● |  |  | 
LLFKDS | ● |  |  | ● |  | 
LLVYNK | ● |  |  | ● |  | 
LNLKLL | ● |  | ● |  |  | 
LNSVFK | ● |  |  | ● |  | 
LQVDLG | ● | ● | ● |  |  | 
LSIWES | ● | ● | ● |  |  | 
LVMELD | ● | ● | ● |  |  | 
LYHGQT | ● |  |  | ● |  | 
LYHLVT | ● |  |  | ● |  | 
MDKVER | ● |  |  | ● |  | 
MDVFMK | ● | ● | ● |  |  | 
MELIVS | ● | ● | ● |  |  | 
MFSEFD | ● | ● | ● |  |  | 
MIIYKG | ● |  | ● |  |  | 

Substance | Amyloid ([1]; overall amyloid-forming call) | Th-T Binding [2] | pFTAA Binding [3] | TEM [4, 5] | Amyloid [1] | TEM [4]
MLHKEF | ● | ● |  |  |  | 
MSVSLV | ● | ● | ● |  |  | 
MVVEHP | ● |  | ● |  |  | 
MYVSEM | ● | ● | ● |  |  | 
NLYEKT | ● |  | ● |  |  | 
QIIEIE | ● | ● | ● |  |  | 
QVYYRP |  |  |  |  | ● | ●
SEFSKK | ● |  | ● |  |  | 
SNFLRA | ● |  |  | ● |  | 
SVDYEV | ● |  | ● |  |  | 
SYVLQT | ● | ● | ● |  |  | 
TDVVFM | ● | ● | ● |  |  | 
TIFLDF | ● |  | ● |  |  | 
TKVIPY | ● |  | ● |  |  | 
VDMAMC | ● | ● | ● |  |  | 
VNIELL | ● | ● | ● |  |  | 
VVVNKM | ● |  | ● |  |  | 
VYTVFA | ● | ● | ● |  |  | 
YFTAIQ | ● | ● | ● |  |  | 
YVAGIT | ● | ● | ● |  |  | 
